According to patent publication US9409876B2, “Bradykinin receptor antagonists and pharmaceutical compositions containing them” (DOMPE' FARMACEUTICI S.P.A., priority 2013, dated 2016):
Where two headings read alike, the source gives them in different places.

Tests used:
[1] = Pharmacokinetics after oral gavage; type: in vivo, rat; settings: for AUC(0-inf): read-out: AUCINF_obs (converted); for half-life: read-out: T½
Procedure: (§1) In three of the rats tested in Example 56, indicated as R1, […], also the pharmacokinetic profile of compound 8 (R,R) was evaluated. The results are summarised in Tables III to IV and in FIGS. 1-4.
FIGS. 1 and 2 show the plasma concentrations, expressed in ng/ml, of compound 8 (R,R) over time after oral administration for each of the three subjects tested (FIG. 1) and as an average (FIG. 2).
(§2) In tables III and V, T1/2 means the half-time of the compound, Tmax means the time at which the concentration of the compound reaches the maximum level, Cmax means the maximal concentration, Tlast means the latest time-point at which the concentration of the compound can be measured, Clast means the concentration at the latest time-point at which the concentration of the compound can be measured, AUClast means the area under the curve at the latest time-point at which the concentration of the compound can be measured, AUCinf_obs means the area under the curve which is infinitely extrapolated and MRTlast means the mean residence time at the latest time-point at which the concentration of the compound can be measured.
(§3) In tables IV and VI, LLOQ means lower limit of quantification.

[2] = Pharmacokinetics after IV administration, brain penetration assessment; type: in vivo, rat; settings: for concentration at 60 min / concentration at 240 min / concentration at 15 min: iv, 7.5 mg/kg
Procedure: as §1, §2, §3
Brain penetration was performed by IV administration at 7.5 mg/kg.

[3] = Sprague-Dawley (SD), rat, plasma, po, 10 mg/kg, oral administration, Average, read-out: plasma level
[4] = Sprague-Dawley (SD), rat, plasma, po, 10 mg/kg, oral administration, Rat2, read-out: plasma level
[5] = Sprague-Dawley (SD), rat, plasma, po, 10 mg/kg, oral administration, Rat3, read-out: plasma level
[6] = Sprague-Dawley, rat, plasma, po, 10 mg/kg, 10 mg/kg oral gavage, Average
[7] = Sprague-Dawley, rat, plasma, po, 10 mg/kg, 10 mg/kg oral gavage, Rat 1
[8] = Sprague-Dawley, rat, plasma, po, 10 mg/kg, 10 mg/kg oral gavage, Rat 2
[9] = Sprague-Dawley, rat, plasma, po, 10 mg/kg, 10 mg/kg oral gavage, Rat 3
[10] = Sprague-Dawley, rat, plasma, po, 10 mg/kg, oral administration, Average, read-out: plasma level
[11] = Sprague-Dawley, rat, plasma, po, 10 mg/kg, oral administration, Rat1, read-out: plasma level
[12] = Sprague-Dawley, rat, plasma, po, 10 mg/kg, oral administration, Rat2, read-out: plasma level
[13] = Sprague-Dawley, rat, plasma, po, 10 mg/kg, oral administration, Rat3, read-out: plasma level
[14] = IV 7.5 mg/kg, Time 480, Average
[15] = Sprague-Dawley (SD), rat, IV 7.5 mg/kg, Brain
[16] = Sprague-Dawley (SD), rat, IV 7.5 mg/kg, Plasma
[17] = Sprague-Dawley, rat, IV 7.5 mg/kg, Brain

- Clast ([1]; 10 mg/kg oral gavage, Average): 1.1 ng/mL
- Tlast ([1]; 10 mg/kg oral gavage, Average): 200.0 min
- Tlast ([1]; 10 mg/kg oral gavage, Rat 1): 240 min
- Tlast ([1]; 10 mg/kg oral gavage, Rat 2): 240 min
- Tlast ([1]; 10 mg/kg oral gavage, Rat 3): 120 min
- bioavailability ([1]; SD (Sprague-Dawley), rat, plasma, 10 mg/kg, oral vs intravenous exposure): 0.16%
- Cmax ([1]; SD (Sprague-Dawley), rat, plasma, po, 10 mg/kg, oral administration): ~3 ng/mL
- concentration at 15 min [1, 3]: 2.6 ng/mL
- concentration at 15 min [1, 4]: 3 ng/mL
- concentration at 15 min [1, 5]: 2.3 ng/mL
- concentration at 30 min [1, 3]: 2 ng/mL
- concentration at 30 min ([1]; Sprague-Dawley (SD), rat, plasma, po, 10 mg/kg, oral administration, Rat1, read-out: plasma level): 1.8 ng/mL
- concentration at 30 min [1, 4]: 2.4 ng/mL
- concentration at 30 min [1, 5]: 1.7 ng/mL
- concentration at 240 min ([1]; Sprague-Dawley, rat, plasma, oral, 10 mg/kg, 10 mg/kg oral gavage, Rat 1, read-out: Clast): 1.1 ng/mL
- concentration at 240 min ([1]; Sprague-Dawley, rat, plasma, oral, 10 mg/kg, 10 mg/kg oral gavage, Rat 2, read-out: Clast): 1.1 ng/mL
- concentration at 120 min ([1]; Sprague-Dawley, rat, plasma, oral, 10 mg/kg, 10 mg/kg oral gavage, Rat 3, read-out: Clast): 1 ng/mL
- AUC(0-t) [1, 6]: 5.63 ng·h/mL
- Cmax [1, 6]: 3.4 ng/mL
- MRT last [1, 6]: 84.3 min
- Tmax [1, 6]: 8.3 min
- AUC(0-inf) [1, 6]: 10.8 ng·h/mL
- half-life [1, 6]: 202 min
- AUC(0-t) [1, 7]: 5.67 ng·h/mL
- Cmax [1, 7]: 4 ng/mL
- MRT last [1, 7]: 101 min
- Tmax [1, 7]: 5 min
- AUC(0-inf) [1, 7]: 14.4 ng·h/mL
- half-life [1, 7]: 345 min
- AUC(0-t) [1, 8]: 8.62 ng·h/mL
- Cmax [1, 8]: 3 ng/mL
- MRT last [1, 8]: 104 min
- Tmax [1, 8]: 15 min
- AUC(0-inf) [1, 8]: 13.7 ng·h/mL
- half-life [1, 8]: 191 min
- AUC(0-t) [1, 9]: 2.59 ng·h/mL
- Cmax [1, 9]: 3.3 ng/mL
- MRT last [1, 9]: 47.7 min
- Tmax [1, 9]: 5 min
- AUC(0-inf) [1, 9]: 4.28 ng·h/mL
- half-life [1, 9]: 70.2 min
- concentration at 5 min [1, 10]: 3.1 ng/mL
- concentration at 5 min [1, 11]: 4 ng/mL
- concentration at 5 min [1, 12]: 2.2 ng/mL
- concentration at 5 min [1, 13]: 3.3 ng/mL
- concentration at 15 min [1, 11]: 2.7 ng/mL
- concentration at 60 min [1, 10]: 1.4 ng/mL
- concentration at 60 min [1, 11]: 1.3 ng/mL
- concentration at 60 min [1, 12]: 2.1 ng/mL
- concentration at 60 min [1, 13]: 0.8 ng/mL
- concentration at 120 min ([1]; Sprague-Dawley, rat, plasma, po, 10 mg/kg, oral administration, 120 min, Average, read-out: plasma level): 1.7 ng/mL
- concentration at 120 min ([1]; Sprague-Dawley, rat, plasma, po, 10 mg/kg, oral administration, 120 min, Rat1, read-out: plasma level): 1.3 ng/mL
- concentration at 120 min ([1]; Sprague-Dawley, rat, plasma, po, 10 mg/kg, oral administration, 120 min, Rat2, read-out: plasma level): 2.8 ng/mL
- concentration at 120 min ([1]; Sprague-Dawley, rat, plasma, po, 10 mg/kg, oral administration, 120 min, Rat3, read-out: plasma level): 1 ng/mL
- concentration at 240 min ([1]; Sprague-Dawley, rat, plasma, po, 10 mg/kg, oral administration, 240 min, Average, read-out: plasma level): 1.1 ng/mL
- concentration at 240 min ([1]; Sprague-Dawley, rat, plasma, po, 10 mg/kg, oral administration, 240 min, Rat1, read-out: plasma level): 1.1 ng/mL
- concentration at 240 min ([1]; Sprague-Dawley, rat, plasma, po, 10 mg/kg, oral administration, 240 min, Rat2, read-out: plasma level): 1.1 ng/mL
- absorption after oral administration ([1]; compared to the intravenous exposure): very poor absorption
- plasma level ([1]; oral administration, 240 min, Rat3): <LLOQ
- plasma level ([1]; oral administration, 480 min, Average): <LLOQ
- plasma level ([1]; oral administration, 480 min, Rat1): <LLOQ
- plasma level ([1]; oral administration, 480 min, Rat2): <LLOQ
- plasma level ([1]; oral administration, 480 min, Rat3): <LLOQ
- Tlast ([2]; IV 7.5 mg/kg, Brain): 60 min
- Tlast ([2]; IV 7.5 mg/kg, Plasma): 240 min
- Brain level ([2]; IV 7.5 mg/kg, Time 15, Average): 635.1 ng/g
- Brain level ([2]; IV 7.5 mg/kg, Time 15, R1): 619.3 ng/g
- Brain level ([2]; IV 7.5 mg/kg, Time 15, R2): 446.05 ng/g
- Brain level ([2]; IV 7.5 mg/kg, Time 15, R3): 839.85 ng/g
- Brain level ([2]; IV 7.5 mg/kg, Time 240, Average): <LLOQ
- Brain level ([2]; IV 7.5 mg/kg, Time 240, R1): <LLOQ
- Brain level ([2]; IV 7.5 mg/kg, Time 240, R2): <LLOQ
- Brain level ([2]; IV 7.5 mg/kg, Time 240, R3): <LLOQ
- Brain level [2, 14]: <LLOQ
- plasma level [2, 14]: <LLOQ
- Brain level ([2]; IV 7.5 mg/kg, Time 480, R1): <LLOQ
- plasma level ([2]; IV 7.5 mg/kg, Time 480, R1): <LLOQ
- Brain level ([2]; IV 7.5 mg/kg, Time 480, R2): <LLOQ
- plasma level ([2]; IV 7.5 mg/kg, Time 480, R2): <LLOQ
- Brain level ([2]; IV 7.5 mg/kg, Time 480, R3): <LLOQ
- plasma level ([2]; IV 7.5 mg/kg, Time 480, R3): <LLOQ
- concentration at 60 min ([2]; Sprague-Dawley (SD), rat, brain, Brain, read-out: Clast): 48.8 ng/mL
- concentration at 240 min ([2]; Sprague-Dawley (SD), rat, plasma, Plasma, read-out: Clast): 4.2 ng/mL
- AUC(0-t) [2, 15]: 523 ng·h/mL
- MRT last [2, 15]: 11.2 min
- AUC(0-t) [2, 16]: 1200 ng·h/mL
- MRT last [2, 16]: 15.9 min
- Tmax [2, 16]: 15 min
- half-life ([2]; Sprague-Dawley (SD), rat, IV 7.5 mg/kg, Plasma, read-out: T½): 12.5 min
- concentration at 60 min ([2]; Sprague-Dawley, rat, brain, Time 60, Average, read-out: Brain level): 48.8 ng/g
- concentration at 60 min ([2]; Sprague-Dawley, rat, brain, Time 60, R1, read-out: Brain level): 62.1 ng/g
- concentration at 60 min ([2]; Sprague-Dawley, rat, brain, Time 60, R2, read-out: Brain level): 34.6 ng/g
- concentration at 60 min ([2]; Sprague-Dawley, rat, brain, Time 60, R3, read-out: Brain level): 49.5 ng/g
- Kp ([2]; Sprague-Dawley, rat, brain, IV 7.5 mg/kg, average on the AUC ratio): ~0.43
- concentration at 15 min ([2]; Sprague-Dawley, rat, plasma, Time 15, Average, read-out: Plasma level): 1400 ng/mL
- concentration at 15 min ([2]; Sprague-Dawley, rat, plasma, Time 15, R1, read-out: Plasma level): 1600 ng/mL
- concentration at 15 min ([2]; Sprague-Dawley, rat, plasma, Time 15, R2, read-out: Plasma level): 1140 ng/mL
- concentration at 15 min ([2]; Sprague-Dawley, rat, plasma, Time 15, R3, read-out: Plasma level): 1470 ng/mL
- concentration at 60 min ([2]; Sprague-Dawley, rat, plasma, Time 60, Average, read-out: Plasma level): 162 ng/mL
- concentration at 60 min ([2]; Sprague-Dawley, rat, plasma, Time 60, R1, read-out: Plasma level): 123 ng/mL
- concentration at 60 min ([2]; Sprague-Dawley, rat, plasma, Time 60, R2, read-out: Plasma level): 157 ng/mL
- concentration at 60 min ([2]; Sprague-Dawley, rat, plasma, Time 60, R3, read-out: Plasma level): 205 ng/mL
- concentration at 240 min ([2]; Sprague-Dawley, rat, plasma, Time 240, Average, read-out: Plasma level): 4.2 ng/mL
- concentration at 240 min ([2]; Sprague-Dawley, rat, plasma, Time 240, R1, read-out: Plasma level): 4.05 ng/mL
- concentration at 240 min ([2]; Sprague-Dawley, rat, plasma, Time 240, R2, read-out: Plasma level): 3.35 ng/mL
- concentration at 240 min ([2]; Sprague-Dawley, rat, plasma, Time 240, R3, read-out: Plasma level): 5.2 ng/mL
- Cmax [2, 17]: 635 ng/g
- Tmax [2, 17]: 15 min
- Cmax ([2]; Sprague-Dawley, rat, IV 7.5 mg/kg, Plasma): 1400 ng/mL
Compound: COc1ccccc1CN(C(=O)CC(C)C)[C@@H](C(=O)NC[C@H]1CCCO1)c1ccc(C)cc1 [Compound 8 (R,R), 3-methyl-N-(2-methoxybenzyl)-N-{[(1R)-1-(4-methylphenyl)]-2-oxo-2-[(2R)-(tetrahydrofuran-2-ylmethyl)amino]ethyl}butanamide]
